Experimental data published in PMC10614388, “Genoprotective potential of Macaranga species phytochemical compounds on HT-29 human colorectal adenocarcinoma cell line” (Genes and Environment, 2023).
“Also recorded” adds a separate entry of the source. Like-named read-outs stand apart in the source and are kept apart here.

Assays:
HT-29 cells [1] = experiment: Alkaline Comet assay, protection against menadione-induced genotoxicity
Description: (§1) Alkaline Comet Assay was used to assess strand breaks in DNA indicative of DNA damage. The experiment was carried out according to previous study by Tan et al.. […] Cells were also treated with hydrogen peroxide (H2O2) (as positive control, 1.0 mM) for 30 min. […] Following respective incubations, detached cells in the media were collected, added to trypsinize cells and centrifuged (2500 rpm/5 min). The supernatant was removed, and the pellet was washed with Ca^2+−/Mg^2+-free PBS before re-centrifugation. Pellets left at the bottom were mixed thoroughly with 80 µl of 0.6% low melting agarose (LMA) (w/v) and the mixture was pipetted onto hardened 0.6% normal melting agarose (NMA) (w/v) on the slide. Coverslips were placed to spread the mixture and the slides were left on ice for LMA to solidify. Following the removal of the coverslips, the embedded cells were lysed in lysis buffer containing 2.5 M NaCl, 100 mM Na2EDTA, 10 mM Tris, and 1% Triton X-100 for 1 h at 4 °C. Slides were soaked in electrophoresis buffer solution for 20 min at 4 °C for DNA-unwinding before electrophoresis at 300 mA, 25 V, for 20 min. Subsequently, the slides were rinsed with neutralizing buffer for 5 min and stained with […] ethidium bromide solution. Slides were analysed using Leitz Laborlux epifluorescence microscope equipped with 515 barrier filter and 560 emission filter. Fifty cells per slide were scored and the tail moment (TM) and % tail DNA (TD) were analyzed with COMET assay III (Perceptive Instruments, UK).

HT-29 cells [2] = settings: human, 21.2 µM
Description: as §1

HT-29 cells [3] = experiment: Reactive oxygen species by dihydroethidine (HE) staining (flow cytometry); assay type: cell-based, human
Description: The generation of superoxide anion was determined as described previously. […] Cells were then centrifuged at 220 g for 5 min and resuspended in 1 ml PBS. Flow cytometry was performed using FACS CANTO II (BD Bioscience).

[4] = parameters: method as in doi:10.1016/j.phytol.2019.02.002; settings: cited from earlier work
HT-29 cells [5] = experiment: Annexin V-FITC/PI apoptosis assay (flow cytometry); assay type: cell-based, human
Description: The mode of cell death was determined using the Annexin V-FITC/PI apoptosis assay. Cells were treated with IC50 value of the selected compound and apoptosis assessment were done at 4 h, 24 and 48 h respectively. 100µM of menadione was used as a positive control with an enriched media act as a negative control. The measurement of apoptosis is based on phosphatidylserine (PS) exposure as described previously. Briefly, cells were collected and resuspended in […] annexin V buffer containing […] FITC-conjugated annexin V and incubated for 15 min in the dark. Propidium iodide ([…] of 50 mg/ml stock in PBS) was then added and samples were subjected to flow cytometric analysis using FACS CANTO II (BD Biosciences, San Jose, CA, USA).

[6] = system: HT-29 human colorectal adenocarcinoma cell line; experiment: Sulforhodamine B (SRB) cytotoxicity assay; assay type: cell-based; settings: HT-29 cells, 48 h treatment
Description: (§2) HT-29 (HTB-38™) cells were grown in McCoy’s 5a Modified Medium (Sigma-Aldrich, St. Louis, MO, USA) while CCD-18Co (CRL-1459™) cells were grown in Eagle’s Minimum Essential Medium (EMEM; Thermo Fisher Scientific, Waltham, MA, USA). Both culture media were supplemented with 10% foetal bovine serum (FBS; Thermo Fisher Scientific, Waltham, MA, USA) and penicillin-streptomycin antibiotic (Thermo Fisher Scientific, Waltham, MA, USA). Non-essential amino acids (NEAA; Thermo Fisher Scientific, Waltham, MA, USA) were added to the completed EMEM media. Cells were maintained at 37 °C in a 5% CO2 incubator. Cells were detached via trypsinization (0.025% trypsin) after reaching confluency and were ready to be used for tests.
(§3) Sulforhodamine B (SRB) assay was used to assess the cytotoxicity of the compounds [17]. Briefly, HT-29 and CCD-18Co cells were seeded in 96-well-plate at 1.5 × 10^5 cells/ml respectively and were incubated at 37 °C in 5% CO2 for 24 h. 100 µl of six concentrations of serially diluted compounds (0.94–30 µg/ml) were added in their respective wells. Hydrogen peroxide (10 mM) was used as the positive control. The plate was incubated for 48 h. Cells were fixed with 50 µl of 50% cold (4 °C) trichloroacetic Acid (TCA) and incubated at 4 °C for 1 h. The plates were washed five times with tap water and air-dried before staining with 100 µL of 0.4% (w/v) SRB staining solution (Sigma-Aldrich, St. Louis, MO, USA). Further incubation was done for 30 min at room temperature. Subsequently, the plates were washed three times with 1% (v/v) acetic acid to remove any unbound stains. After air-dried, 200 µL of 10 mM trizma base were added into each well and agitated for 15 min. Absorbance was read with a microplate reader with Microplate Manager® Software at the wavelength of 564 nm. All experiments were carried out in triplicates.

[7] = system: CCD-18Co human normal colon cell line; experiment: Sulforhodamine B (SRB) cytotoxicity assay; assay type: cell-based; settings: CCD-18Co cells, 48 h treatment
Description: as §2, §3

[8] = system: murine leukemia P-388 cells; parameters: method as in earlier work; settings: Tanjung et al. (2017); cited from earlier work
[9] = pre-treated with Laevifolin A at IC50 for 20 h, followed by 4-hour menadione (100 µM)
[10] = menadione 100 µM, 4-hour incubation

SMILES: CC(C)=CCc1c(CCc2c(CC=C(C)C)c(O)cc(O)c2CC=C(C)C)ccc(O)c1O [Laevifolin A]
- Level of DNA damage, % tail DNA (HT-29 cells [1]; [9]): 1.24 ± 0.1%
- Level of DNA damage, Tail moment (HT-29 cells [1]; [9]): 9.8 ± 0.9 Arbitrary unit
- Level of DNA damage, % tail DNA (HT-29 cells [2]; 30 min): 6.4 ± 1.6%
- Level of DNA damage, Tail moment (HT-29 cells [2]; 30 min): 0.53 ± 0.1 Arbitrary unit
- Level of DNA damage, % tail DNA (HT-29 cells [2]; 1 h): 6.0 ± 0.6%
- Level of DNA damage, Tail moment (HT-29 cells [2]; 1 h): 0.45 ± 0.03 Arbitrary unit
- Level of DNA damage, % tail DNA (HT-29 cells [2]; 4 h): 4.3 ± 1.2%
- Level of DNA damage, Tail moment (HT-29 cells [2]; 4 h): 0.31 ± 0.1 Arbitrary unit
- Level of DNA damage, % tail DNA (HT-29 cells [2]; 24 h): 7.8 ± 0.7%
- Level of DNA damage, Tail moment (HT-29 cells [2]; 24 h): 0.69 ± 0.1 Arbitrary unit
- percentage of cells with HE uptake (generation of ROS) (HT-29 cells [3]; Laevifolin A at IC50 (21.2 µM), compared with negative control): no significant increase; also recorded: no significant increase or decrease of ROS
- antioxidant properties, DPPH radical scavenging activity [4]: possesses antioxidant properties
- induction of apoptotic cells (HT-29 cells [5]; Laevifolin A at IC50 (21.2 µM), 4 h, 24 and 48 h, compared to negative control): no induction of apoptosis; also recorded: no significant induction of apoptotic cells; also recorded: did not induce apoptosis
- IC50 ([6]; Homo sapiens, read-out: IC50): 21.2 µM
- IC50 [7]: 59.5 µM
- IC50 [8]: 4.3 ± 0.6 µM

SMILES: CC(C)=CCc1cc(CCc2c(CC=C(C)C)c(O)cc(O)c2CC=C(C)C)cc(O)c1O [Laevifolin B]
- IC50 [6]: no IC50 values were obtained
- IC50 [8]: 12.3 ± 0.6 µM

SMILES: CC(C)=CCc1cc(CCc2c(CC=C(C)C)c(O)cc(O)c2CC=C(C)C)ccc1O [Malayheyneiin A]
- IC50 [6]: no IC50 values were obtained

SMILES: CC1=CC(=O)c2ccccc2C1=O [Menadione, reference compound]
- Level of DNA damage, % tail DNA (HT-29 cells [1]; [10]): *23.4 ± 3.1%
- Level of DNA damage, Tail moment (HT-29 cells [1]; [10]): *7.00 ± 0.8 Arbitrary unit
- percentage of cells with HE uptake (generation of ROS) (HT-29 cells [3]; menadione at 100 µM, positive control): 22.6 ± 1.0%
- induction of apoptotic cells (HT-29 cells [5]; positive control at 100 µM): significant (p < 0.05) increase of apoptotic cells
